Measured values published in patent US7964620B2, “Imidazole derivatives” (Hoffmann-La Roche Inc., priority 2003, dated 2011).

What follows are molecules tested against T1, human mGlu 5a receptor (Homo sapiens, UniProt P41594) (assay: [3H]MPEP competition binding on membranes of EBNA cells transiently transfected with human mGlu 5a receptor). Details: competition with 2 nM [3H]MPEP, 1 h at 4° C., Ki=IC50/[1+L/Kd].
T1 construct: expressed in transfected cells; host or cells: EBNA cells (transient transfection); cell membrane homogenates
Procedure: For binding experiments, cDNA encoding human mGlu 5a receptor was transiently trans-fected into EBNA cells using a procedure described by Schlaeger and Christensen [Cyto-technology 15:1-13 (1998)]. Cell membrane homogenates were stored at −80° C. until the day of assay where upon they were thawed and resuspended and polytronized in 15 mM Tris-HCl, 120 mM NaCl, 100 mM KCl, 25 mM CaCl2, 25 mM MgCl2 binding buffer at pH 7.4 to a final assay concentration of 20 μg protein/well.
Saturation isotherms were determined by addition of twelve [^3H]MPEP concentrations (0.04-100 nM) to these membranes (in a total volume of 200 μl) for 1 h at 4° C. Competition experiments were performed with a fixed concentration of [^3H]MPEP (2 nM) and IC50 values of test compounds evaluated using 11 concentrations (0.3-10,000 nM). Incubations were performed for 1 h at 4° C.
At the end of the incubation, membranes were filtered onto unifilter (96-well white microplate with bonded GF/C filter preincubated 1 h in 0.1% PEI in wash buffer, Packard BioScience, Meriden, Conn.) with a Filtermate 96 harvester (Packard BioScience) and washed 3 times with cold 50 mM Tris-HCl, pH 7.4 buffer. Nonspecific binding was measured in the presence of 10 μM MPEP. The radioactivity on the filter was counted (3 min) on a Packard Top-count microplate scintillation counter with quenching correction after addition of 45 μl of microscint 40 (Can berra Packard S. A., Zürich, Switzerland) and shaking for 20 min. For functional assays, [Ca^2+]i measurements were performed as described previously by Porter et al. [Br. J. Pharmacol. 128:13-20 (1999)] on recombinant human mGlu 5a receptors in HEK-293 cells. The cells were dye loaded using Fluo 4-AM (obtainable by FLUKA, 0.2 μM final concentration). [Ca^2+]i measurements were performed using a fluorometric imaging plate reader (FLIPR, Molecular Devices Corporation, La Jolla, Calif., USA). Antagonist evaluation was performed following a 5 min preincubation with the test compounds followed by the addition of a submaximal addition of agonist.
The inhibition (antagonists) curves were fitted with a four parameter logistic equation giving IC50, and Hill coefficient using an iterative non linear curve fitting software (Xcel fit). For binding experiments the Ki values of the compounds tested are given. The Ki value is defined by the following formula: Ki=IC50/[1+L/Kd] in which the IC50 values are those concentrations of the compounds tested which cause 50% inhibition of the competing radioligand ([^3H]MPEP). L is the concentration of radioligand used in the binding experiment and the Kd value of the radioligand is empirically determined for each batch of membranes prepared.

T1 sequence (P41594 21-1180 isoform P41594-2 limits assumed): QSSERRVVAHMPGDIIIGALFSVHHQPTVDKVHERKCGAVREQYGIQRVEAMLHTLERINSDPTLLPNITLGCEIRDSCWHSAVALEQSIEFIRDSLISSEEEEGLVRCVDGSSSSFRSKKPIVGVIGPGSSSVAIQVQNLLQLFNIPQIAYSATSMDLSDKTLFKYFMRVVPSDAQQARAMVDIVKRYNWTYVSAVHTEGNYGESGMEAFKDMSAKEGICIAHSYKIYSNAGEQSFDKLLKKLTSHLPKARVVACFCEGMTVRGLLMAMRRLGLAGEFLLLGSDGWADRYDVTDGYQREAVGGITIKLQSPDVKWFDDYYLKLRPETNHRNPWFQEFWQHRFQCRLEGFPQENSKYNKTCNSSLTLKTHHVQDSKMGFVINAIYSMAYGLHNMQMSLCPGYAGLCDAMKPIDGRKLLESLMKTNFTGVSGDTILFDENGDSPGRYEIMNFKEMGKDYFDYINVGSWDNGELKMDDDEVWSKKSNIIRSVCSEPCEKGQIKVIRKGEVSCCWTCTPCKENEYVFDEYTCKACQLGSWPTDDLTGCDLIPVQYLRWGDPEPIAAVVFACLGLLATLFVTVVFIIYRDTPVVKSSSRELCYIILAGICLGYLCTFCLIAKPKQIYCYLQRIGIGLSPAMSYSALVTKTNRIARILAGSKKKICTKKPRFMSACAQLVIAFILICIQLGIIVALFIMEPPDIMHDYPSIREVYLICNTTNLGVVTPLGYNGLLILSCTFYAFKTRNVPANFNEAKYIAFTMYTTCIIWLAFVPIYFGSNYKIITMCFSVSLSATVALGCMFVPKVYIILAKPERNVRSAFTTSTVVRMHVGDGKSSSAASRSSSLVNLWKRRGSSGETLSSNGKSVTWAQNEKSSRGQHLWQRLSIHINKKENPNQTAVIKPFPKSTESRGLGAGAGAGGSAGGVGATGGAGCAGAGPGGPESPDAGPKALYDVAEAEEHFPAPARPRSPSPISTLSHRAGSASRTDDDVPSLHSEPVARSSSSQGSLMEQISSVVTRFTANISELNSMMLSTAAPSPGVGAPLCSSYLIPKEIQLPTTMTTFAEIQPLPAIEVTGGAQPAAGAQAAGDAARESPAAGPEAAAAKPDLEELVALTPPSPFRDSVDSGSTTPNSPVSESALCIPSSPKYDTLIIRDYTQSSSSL

Question: For Cc1nc(C#Cc2cccc(C#N)c2)cn1Cc1cncc(Cl)c1 [Example 18, 3-[1-(5-Chloro-pyridin-3-ylmethyl)-2-methyl-1H-imidazol-4-ylethynyl]-benzonitrile], which Ki is on record?
Answer: The Ki was 94 nM.

Question: How did the Ki turn out when Cc1cc(C#Cc2cn(C(C)c3ccccc3)c(C)n2)ccn1 (racemic) [Example 23, rac-2-Methyl-4-[2-methyl-1-(1-phenyl-ethyl)-1H-imidazol-4-ylethynyl]-pyridine] was run?
Answer: Its Ki is 77 nM.

Question: With Cc1cc(C#Cc2cn(Cc3cccc(C)n3)c(C)n2)ccn1 [Example 4, 4-[1-(6-Methyl-pyridin-2-ylmethyl)-2-methyl-1H-imidazol-4-ylethynyl]-2-methyl-pyridine] as the molecule, how does the Ki read?
Answer: The Ki was 93 nM.

Question: Cc1nc(C#Cc2cccc(Cl)c2)cn1Cc1ccccn1 [Example 3, 2-[4-(3-Chloro-phenylethynyl)-2-methyl-imidazol-1-ylmethyl]-pyridine] was tested. Which Ki did it give?
Answer: Its Ki is 40 nM.

Question: Which Ki does the source give for Cc1cc(C#Cc2cn(CCc3ccccc3)c(C)n2)ccn1 [Example 29, 2-Methyl-4-(2-methyl-1-phenethyl-1H-imidazol-4-ylethynyl)-pyridine] here?
Answer: Its Ki is 33 nM.
